Structures can show the parent of a compound that is named as a salt.

One may read the EC50 as the midpoint of the concentration-response curve.

Assay [1] concerns the target T1, IRE1α (Homo sapiens, UniProt O75460). The assay is described as follows: IRE1α Endoribonuclease Nanoluciferase Assay (XBP1 luciferase reporter, 293T cells). Further details: endogenous in cells; host or cells: 293T cells. The class given is cell-based. Particulars: 293T cells transfected with XBP1 luciferase reporter plasmid, stressors +/- inhibitors. As for the experimental part: Compounds disclosed herein were assessed for disruption of IRE-1 signaling using a IRE1α Endoribonuclease Nanoluciferase Assay. Briefly, 2.5×10^6 293T cells were seeded in a 10 cm^2 tissue culture plate. About 24 hours later, the cells were transfected with Effectene. In a 15 mL Tube, the following was added: 2 μg XBP1 luciferase reporter plasmid (PGK-Luc2-P2A-XBP1u-Nanoluciferase-PEST); 300 μl EC buffer; and 16 μl Enhancer, followed by incubation at room temp for 5 minutes. Next, 60 μl Effectene (Qiagen 301427) was added, followed by incubation at room temperature for 10 minutes. 2.6 mL cDMEM media was added. Old media was aspirated from the cells, followed by addition of 7 mL fresh media. Full transfection mixture was added dropwise to cells. Cells were incubated for 6 hours, followed by tripsinization, centrifugation and resuspension in 11 mL media. 100 uL of cells were plated per a well in a 96 well plate. A day later, stressors of choice +/− inhibitors were added. To harvest, media was aspirated from cells completely, then 50 uL 1× passive lysis buffer (Promega: E1941) was added per well and put on shaker (300 rpm) for 30 minutes at room temperature. Cells were centrifuged, and 15 uL sample per well was added to a new, opaque white 384 well plate (Corning 3570). 15 uL OneGlo (nanoluciferase kit, Promega N1630) was added. Plates were spun down, placed on shaker (300 rpm) for 10 minutes. Plates were read on luminometer, 1000 ms integration time per well. 15 uL Stop and Glo (nanoluciferase kit) was added. Plates were spun down, placed on shaker (300 rpm) for 10 minutes. Plates were read on luminometer, 1000 ms second integration time per well. Recordings are provided below in Table 6.
Background: In a reporter assay the amount or activity of a reporter protein is the signal.
Target sequence in this assay (O75460 19-977): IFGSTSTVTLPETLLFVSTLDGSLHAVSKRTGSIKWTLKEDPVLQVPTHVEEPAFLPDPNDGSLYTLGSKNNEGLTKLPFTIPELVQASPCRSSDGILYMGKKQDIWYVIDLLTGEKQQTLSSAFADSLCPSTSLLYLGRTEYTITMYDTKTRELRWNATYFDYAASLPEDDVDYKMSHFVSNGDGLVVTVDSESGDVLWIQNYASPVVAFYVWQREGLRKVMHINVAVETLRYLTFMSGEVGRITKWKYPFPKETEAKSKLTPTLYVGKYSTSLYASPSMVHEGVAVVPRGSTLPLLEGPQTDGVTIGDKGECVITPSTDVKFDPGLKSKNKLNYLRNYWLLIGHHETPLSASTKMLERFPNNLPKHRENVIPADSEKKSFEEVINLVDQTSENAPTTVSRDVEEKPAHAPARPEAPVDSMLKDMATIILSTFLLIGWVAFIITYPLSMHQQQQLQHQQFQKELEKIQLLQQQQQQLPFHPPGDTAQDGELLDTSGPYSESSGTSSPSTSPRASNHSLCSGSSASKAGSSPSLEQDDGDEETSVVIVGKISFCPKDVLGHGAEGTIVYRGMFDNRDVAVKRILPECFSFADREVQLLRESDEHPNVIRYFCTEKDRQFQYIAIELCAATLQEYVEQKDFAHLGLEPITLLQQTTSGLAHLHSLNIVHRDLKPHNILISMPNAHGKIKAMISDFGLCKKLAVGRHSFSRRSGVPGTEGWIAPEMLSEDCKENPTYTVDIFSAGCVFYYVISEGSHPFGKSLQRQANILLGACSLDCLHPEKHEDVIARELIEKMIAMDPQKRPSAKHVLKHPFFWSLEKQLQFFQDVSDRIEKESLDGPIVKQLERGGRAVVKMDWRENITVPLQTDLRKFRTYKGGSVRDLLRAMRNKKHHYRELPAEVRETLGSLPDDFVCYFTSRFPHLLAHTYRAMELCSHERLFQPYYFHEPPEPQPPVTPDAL

In assay [2] the target is T1, IRE1α. Kind of assay: In vitro FRET assay (XBP1 RNA probe cleavage by IRE1α). The class given is biochemical. More on the design: purchased SignalChem. Particulars: SignalChem IRE1α protein 2 nM. As for the experimental part:
In vitro FRET assay was performed to evaluate the ability of select compounds to inhibit IRE1, the results of which are summarized in Table 5. To perform the in vitro FRET assay, 1× complete assay buffer (CAB; […], 50 mM sodium citrate pH 7.15, 1 mM magnesium acetate, 0.02% tween 20) was used to dilute SignalChem IRE1α protein to a final concentration of 2 nM. Selected compounds were serially diluted with DMSO in a non-binding black 384-well plate for a total of 15 ul in each well. 2 ul of the serially diluted compound or DMSO control were then added to new wells containing 98 ul of 1×CAB, for a total volume of 100 ul, 10 ul of which were then transferred to wells of a new plate. 5 ul of the diluted IRE1α was then added to each well. 5 ul of a […] XBP1 RNA probe was then added to each well. Fluorescence was then read over 30 minutes in kinetic mode (485/515 nm).
Two RNA probes were used, XBP1 wildtype (SEQ ID NO: 2) which is able to be spliced by active IRE1α or XBP1 mutant (SEQ ID NO: 3) which is unable to be spliced. Each probe contained a 5′ 6-FAM modification and a 3′ IOWA Black FQ modification.
A second FRET assay was performed to assess ATP-mediated inhibition. In this case, compounds and IRE1α were prepared and combined as discussed above, with the addition of ATP up to 1 mM final concentration. This mixture was incubated at room temperature for 60 minutes and then 5 ul of 400 nM XBP1 wildtype or mutant RNA probe was added. Plates were then read over 30 minutes in kinetic mode (485/515 nm).
Target sequence in this assay (O75460 468-977 limits assumed): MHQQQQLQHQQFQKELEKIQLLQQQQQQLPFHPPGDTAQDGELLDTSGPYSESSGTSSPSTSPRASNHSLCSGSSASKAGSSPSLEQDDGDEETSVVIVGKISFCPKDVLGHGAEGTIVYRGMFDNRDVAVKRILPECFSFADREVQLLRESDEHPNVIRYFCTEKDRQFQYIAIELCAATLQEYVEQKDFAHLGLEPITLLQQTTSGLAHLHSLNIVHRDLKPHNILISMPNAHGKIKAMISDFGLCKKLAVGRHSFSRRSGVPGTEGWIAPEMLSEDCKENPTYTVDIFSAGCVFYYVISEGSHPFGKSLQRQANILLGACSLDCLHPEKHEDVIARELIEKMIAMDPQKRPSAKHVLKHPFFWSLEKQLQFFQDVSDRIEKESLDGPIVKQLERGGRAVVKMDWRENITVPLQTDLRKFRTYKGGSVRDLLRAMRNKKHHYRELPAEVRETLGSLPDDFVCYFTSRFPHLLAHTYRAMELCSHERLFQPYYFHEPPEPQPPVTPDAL

Take `CN1CCN(Cc2ccc(NC(=O)Nc3cc(-c4ccc5nc(NC6CCNCC6)ncc5c4)n(C)n3)cc2C(F)(F)F)CC1` [2; TFA]: the EC50 is over 100 nM on IRE1α [1] and at most 5 nM on IRE1α [2].
The matching figures for `CCc1cc(-c2cc(NC(=O)Nc3ccc(CN4CCN(C)CC4)c(C(F)(F)F)c3)nn2C)cc2cnc(N[C@H]3CC[C@H](N)CC3)nc12` [Compound 31, 1-(5-(2-(((1r,4r)-4-aminocyclohexyl)amino)-8-ethylquinazolin-6-yl)-1-methyl-1H-pyrazol-3-yl)-3-(4-((4-methylpiperazin-1-yl)methyl)-3-(trifluoromethyl)phenyl)urea]: at most 5 nM and at most 5 nM.
`CN1CCN(Cc2ccc(NC(=O)Nc3cc(-c4ccc5nc(NC6CCCCC6)ncc5c4)n(C)n3)cc2C(F)(F)F)CC1` [Compound 5, 1-(5-(2-(cyclohexylamino)quinazolin-6-yl)-1-methyl-1H-pyrazol-3-yl)-3-(4-((4-methylpiperazin-1-yl)methyl)-3-(trifluoromethyl)phenyl)urea]: the EC50 at IRE1α [1] and on IRE1α [2] was over 100 nM throughout.
As for `Cc1cc(-c2cc(NC(=O)Nc3ccc(CN4CCN(C)CC4)c(C(F)(F)F)c3)nn2C)cc2cnc(N)nc12` [Compound 12, 1-(5-(2-amino-8-methylquinazolin-6-yl)-1-methyl-1H-pyrazol-3-yl)-3-(4-((4-methylpiperazin-1-yl)methyl)-3-(trifluoromethyl)phenyl)urea], the values for the EC50 on IRE1α [1] and on IRE1α [2] were over 100 nM and 5 to 50 nM, respectively.
In turn, `CN1CCN(Cc2ccc(NC(=O)Nc3cc(-c4ccc5cc(NC6CCCCC6)ncc5c4)n(C)n3)cc2C(F)(F)F)CC1` [4; TFA] displayed a concentration for a half-maximal effect (EC50) at IRE1α [2] of over 100 nM.
